Experimental data: the NIST ThermoML archive (doi:10.1016/j.jct.2016.12.037)

Experiment: xn = mol fraction of the nth substance listed
Settings: Liquid; for viscosity: Concentric cylinders viscometry

CCCC[n+]1ccn(C)c1.O=S(=O)([N-]S(=O)(=O)C(F)(F)F)C(F)(F)F + CCCCn1cc[n+](C)c1.[Cl-]
viscosity [mPa·s], 100 kPa
Settings	293.15 K	303.15 K	313.15 K	323.15 K	333.15 K	343.15 K	353.15 K	363.15 K	373.15 K
x2 = 0	63.41	41.26	28.46	20.58	15.47	12	9.562	7.788	6.469
x2 = 0.25	150.8	89.81	57.25	38.43	27.37	20.16	15.34	12.03	9.638
x2 = 0.5	489.6	255.5	144.8	87.69	57.22	39.08	27.82	20.61	15.7
x2 = 0.75	–	1095	513	265.5	150.4	91.4	58.87	40.11	28.43

mass density [kg/m3]
Settings	x2 = 0	x2 = 0.25	x2 = 0.5	x2 = 0.75
293.15 K, 100 kPa, Vibrating tube method	1440.9	1383.3	1310.1	–
303.15 K, 100 kPa, Vibrating tube method	1431.6	1374.4	1301.8	1207.9
312.3 K, 10000 kPa, Bellows volumetry	–	1373.1	1300.2	1205.8
312.3 K, 20000 kPa, Bellows volumetry	–	1379.8	1306.1	1210.5
312.3 K, 30000 kPa, Bellows volumetry	–	1386	1311.7	1215
312.3 K, 40000 kPa, Bellows volumetry	–	1392	1317	1219.3
312.3 K, 50000 kPa, Bellows volumetry	–	1397.7	1322.1	1223.6
312.3 K, 60000 kPa, Bellows volumetry	–	1403.3	1326.9	1227.7
312.3 K, 70000 kPa, Bellows volumetry	–	1408.6	1331.6	1231.6
312.3 K, 80000 kPa, Bellows volumetry	–	1413.7	1336.2	1235.5
312.3 K, 90000 kPa, Bellows volumetry	–	1418.5	1340.5	1239.2
312.3 K, 100000 kPa, Bellows volumetry	–	1423.4	1344.8	1242.8
312.3 K, 110000 kPa, Bellows volumetry	–	1428.1	1349.1	1246.4
312.3 K, 120000 kPa, Bellows volumetry	–	1432.6	1353.1	1249.9
312.3 K, 130000 kPa, Bellows volumetry	–	1437.1	1357.1	1253.3
312.3 K, 140000 kPa, Bellows volumetry	–	1441.3	1360.9	1256.6
312.3 K, 150000 kPa, Bellows volumetry	–	1445.6	1364.7	1260
312.3 K, 160000 kPa, Bellows volumetry	–	1449.7	1368.4	1263.1
312.3 K, 170000 kPa, Bellows volumetry	–	1453.8	1372.2	1266.3
312.3 K, 180000 kPa, Bellows volumetry	–	1457.7	1375.8	1269.4
312.3 K, 190000 kPa, Bellows volumetry	–	1461.7	1379.3	1272.4
312.3 K, 200000 kPa, Bellows volumetry	–	1465.4	1382.7	1275.5
313.15 K, 100 kPa, Vibrating tube method	1422.1	1365.6	1293.9	1200.6
323.15 K, 100 kPa, Vibrating tube method	1412.6	1356.8	1286	1193.6
331.8 K, 10000 kPa, Bellows volumetry	–	1356.2	1285.2	1192.4
331.8 K, 20000 kPa, Bellows volumetry	–	1363.2	1291.3	1197.3
331.8 K, 30000 kPa, Bellows volumetry	–	1369.9	1297.1	1202.1
331.8 K, 40000 kPa, Bellows volumetry	–	1376.2	1302.7	1206.7
331.8 K, 50000 kPa, Bellows volumetry	–	1382.2	1307.9	1211.1
331.8 K, 60000 kPa, Bellows volumetry	–	1388	1313	1215.5
331.8 K, 70000 kPa, Bellows volumetry	–	1393.5	1318	1219.5
331.8 K, 80000 kPa, Bellows volumetry	–	1398.9	1322.8	1223.6
331.8 K, 90000 kPa, Bellows volumetry	–	1404	1327.2	1227.4
331.8 K, 100000 kPa, Bellows volumetry	–	1408.9	1331.6	1231.2
331.8 K, 110000 kPa, Bellows volumetry	–	1413.9	1336.1	1235
331.8 K, 120000 kPa, Bellows volumetry	–	1418.5	1340.4	1238.5
331.8 K, 130000 kPa, Bellows volumetry	–	1423.2	1344.4	1242
331.8 K, 140000 kPa, Bellows volumetry	–	1427.6	1348.5	1245.4
331.8 K, 150000 kPa, Bellows volumetry	–	1432	1352.3	1248.7
331.8 K, 160000 kPa, Bellows volumetry	–	1436.3	1356.2	1252.1
331.8 K, 170000 kPa, Bellows volumetry	–	1440.5	1359.9	1255.3
331.8 K, 180000 kPa, Bellows volumetry	–	1444.5	1363.8	1258.5
331.8 K, 190000 kPa, Bellows volumetry	–	1448.5	1367.3	1261.6
331.8 K, 200000 kPa, Bellows volumetry	–	1452.6	1371	1264.7
333.15 K, 100 kPa, Vibrating tube method	1403.4	1348.2	1278.3	1186.8
343.15 K, 100 kPa, Vibrating tube method	1394	1339.6	1270.6	1180.2
351.9 K, 10000 kPa, Bellows volumetry	–	1339.5	1270.2	1179
351.9 K, 20000 kPa, Bellows volumetry	–	1346.9	1276.5	1184.3
351.9 K, 30000 kPa, Bellows volumetry	–	1354	1282.7	1189.3
351.9 K, 40000 kPa, Bellows volumetry	–	1360.6	1288.5	1194.1
351.9 K, 50000 kPa, Bellows volumetry	–	1366.9	1294.1	1198.8
351.9 K, 60000 kPa, Bellows volumetry	–	1373	1299.5	1203.2
351.9 K, 70000 kPa, Bellows volumetry	–	1378.9	1304.5	1207.5
351.9 K, 80000 kPa, Bellows volumetry	–	1384.5	1309.5	1211.8
351.9 K, 90000 kPa, Bellows volumetry	–	1389.8	1314.2	1215.7
351.9 K, 100000 kPa, Bellows volumetry	–	1394.9	1318.9	1219.6
351.9 K, 110000 kPa, Bellows volumetry	–	1400	1323.3	1223.4
351.9 K, 120000 kPa, Bellows volumetry	–	1404.9	1327.8	1227.2
351.9 K, 130000 kPa, Bellows volumetry	–	1409.6	1332	1230.8
351.9 K, 140000 kPa, Bellows volumetry	–	1414.2	1336.1	1234.5
351.9 K, 150000 kPa, Bellows volumetry	–	1418.7	1340.3	1237.9
351.9 K, 160000 kPa, Bellows volumetry	–	1423.2	1344.2	1241.4
351.9 K, 170000 kPa, Bellows volumetry	–	1427.5	1348	1244.7
351.9 K, 180000 kPa, Bellows volumetry	–	1431.7	1351.8	1247.9
351.9 K, 190000 kPa, Bellows volumetry	–	1435.8	1355.6	1251.2
351.9 K, 200000 kPa, Bellows volumetry	–	1439.9	1359.2	1254.3
353.15 K, 100 kPa, Vibrating tube method	1384.8	1331.1	1263	1173.6
363.15 K, 100 kPa, Vibrating tube method	1375.6	1322.6	1255.4	1167.1
372.1 K, 10000 kPa, Bellows volumetry	–	1322.9	1255	1165.9
372.1 K, 20000 kPa, Bellows volumetry	–	1330.9	1261.8	1171.6
372.1 K, 30000 kPa, Bellows volumetry	–	1338.3	1268.4	1176.9
372.1 K, 40000 kPa, Bellows volumetry	–	1345.3	1274.6	1181.9
372.1 K, 50000 kPa, Bellows volumetry	–	1352	1280.4	1186.7
372.1 K, 60000 kPa, Bellows volumetry	–	1358.3	1286	1191.4
372.1 K, 70000 kPa, Bellows volumetry	–	1364.4	1291.3	1195.9
372.1 K, 80000 kPa, Bellows volumetry	–	1370.4	1296.5	1200.3
372.1 K, 90000 kPa, Bellows volumetry	–	1375.8	1301.4	1204.4
372.1 K, 100000 kPa, Bellows volumetry	–	1381.2	1306.1	1208.5
372.1 K, 110000 kPa, Bellows volumetry	–	1386.4	1310.9	1212.5
372.1 K, 120000 kPa, Bellows volumetry	–	1391.5	1315.4	1216.3
372.1 K, 130000 kPa, Bellows volumetry	–	1396.2	1319.8	1220
372.1 K, 140000 kPa, Bellows volumetry	–	1401.1	1324.2	1223.7
372.1 K, 150000 kPa, Bellows volumetry	–	1405.7	1328.4	1227.3
372.1 K, 160000 kPa, Bellows volumetry	–	1410.3	1332.5	1230.8
372.1 K, 170000 kPa, Bellows volumetry	–	1414.7	1336.4	1234.1
372.1 K, 180000 kPa, Bellows volumetry	–	1419	1340.3	1237.6
372.1 K, 190000 kPa, Bellows volumetry	–	1423.3	1344.1	1240.8
372.1 K, 200000 kPa, Bellows volumetry	–	1427.6	1347.9	1244.1
373.15 K, 100 kPa, Vibrating tube method	1366.7	1314	1247.5	1160.2
392.3 K, 10000 kPa, Bellows volumetry	–	1306.7	1240.1	1152.9
392.3 K, 20000 kPa, Bellows volumetry	–	1315.1	1247.4	1158.8
392.3 K, 30000 kPa, Bellows volumetry	–	1323.1	1254.3	1164.4
392.3 K, 40000 kPa, Bellows volumetry	–	1330.5	1260.9	1169.7
392.3 K, 50000 kPa, Bellows volumetry	–	1337.5	1266.9	1174.8
392.3 K, 60000 kPa, Bellows volumetry	–	1344.2	1272.8	1179.6
392.3 K, 70000 kPa, Bellows volumetry	–	1350.5	1278.4	1184.3
392.3 K, 80000 kPa, Bellows volumetry	–	1356.6	1283.8	1188.8
392.3 K, 90000 kPa, Bellows volumetry	–	1362.4	1288.8	1193.1
392.3 K, 100000 kPa, Bellows volumetry	–	1368	1293.8	1197.3
392.3 K, 110000 kPa, Bellows volumetry	–	1373.3	1298.7	1201.5
392.3 K, 120000 kPa, Bellows volumetry	–	1378.6	1303.4	1205.5
392.3 K, 130000 kPa, Bellows volumetry	–	1383.7	1308	1209.3
392.3 K, 140000 kPa, Bellows volumetry	–	1388.7	1312.4	1213.1
392.3 K, 150000 kPa, Bellows volumetry	–	1393.5	1316.8	1216.8
392.3 K, 160000 kPa, Bellows volumetry	–	1398.2	1320.9	1220.4
392.3 K, 170000 kPa, Bellows volumetry	–	1402.8	1325.1	1224
392.3 K, 180000 kPa, Bellows volumetry	–	1407.1	1329.2	1227.4
392.3 K, 190000 kPa, Bellows volumetry	–	1411.5	1333	1230.8
392.3 K, 200000 kPa, Bellows volumetry	–	1415.9	1336.9	1234.2
